Assay results reported in patent US10370380B2, “Octahydropyrrolo[3,4-c]pyrrole derivatives and uses thereof” (Sunshine Lake Pharma Co., Ltd., priority 2015, dated 2019).

Legend:
[1] = molecular target: T1, humanized OX2 receptor (Homo sapiens, UniProt O43614); test: Antagonistic effect on humanized OX2 receptor, calcium flux by fluorescence detection in HEK-293 cells; type: cell-based; details: HEK-293 cells, calcium flux induced by 10 nM orexin B; read-out: OX2 IC50
T1 construct: expressed in transfected cells; host or cells: HEK-293 cells
T1 sequence (O43614 1-444): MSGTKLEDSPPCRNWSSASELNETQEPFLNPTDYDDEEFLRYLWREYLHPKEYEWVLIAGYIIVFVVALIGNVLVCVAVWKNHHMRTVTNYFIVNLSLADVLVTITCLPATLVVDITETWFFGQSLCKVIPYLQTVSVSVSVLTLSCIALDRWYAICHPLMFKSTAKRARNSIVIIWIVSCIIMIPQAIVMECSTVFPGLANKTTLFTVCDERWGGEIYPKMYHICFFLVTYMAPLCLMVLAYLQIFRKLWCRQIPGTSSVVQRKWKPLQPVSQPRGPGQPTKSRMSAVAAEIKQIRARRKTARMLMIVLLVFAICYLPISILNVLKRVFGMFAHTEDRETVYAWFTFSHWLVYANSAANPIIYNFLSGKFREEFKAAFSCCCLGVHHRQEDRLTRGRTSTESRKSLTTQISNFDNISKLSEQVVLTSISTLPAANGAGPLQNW
Procedure: The capability of the compounds provided herein to antagonize humanized OX2 receptors expressed in HEK-293 cells was evaluated by the influence of the compounds disclosed herein on calcium flux in cells induced by agonist detected by a method of fluorescence detection. The cells were suspended in DMEM culture medium (invitrogen), and then added to a microplate with an average density of 3×10^4 cells/well. The Hank's balanced salt solution (pH 7.4) containing fluorescent probes (Fluo4 NW, Invitrogen), probenecid (invitrogen), 20 mM […] (invitrogen) was added to the above microplate, and then incubated together with the cells at 37° C. for 60 min, further incubated at 22° C. for 15 min. The microplate was placed in a microplate reader (CellLux, PerkinElmer), and to which was added the test compound or reference antagonist or Hank's balanced salt solution, 5 min later, 10 nM of orexin B or Hank's balanced salt solution (as a blank contrast) was added. […] The experimental results were expressed as an inhibition percentage relative to a control group (the group with 10 nM of orexin B).
The standard reference antagonist is JNJ10397049, and IC50 values were calculated by the dose-effect curve obtained from a series of concentrations of the experimental test.

[2] = Pharmacokinetic evaluation after intravenous or gavage administration to dogs; type: in vivo, Beagle dogs; details: beagle, dog, in vivo
Procedure: The compounds disclosed herein were administered in form of a saline solution containing 5% DMSO, 5% Kolliphor HS 15, 2% (2% HCl) and 88% Saline, or a solution containing 10% DMSO, 10% Kolliphor HS 15 and 80% physiological saline to the subject animals. For intravenous administration, the animals were administered with a dose of 1 mg/kg or 2 mg/kg, and vein blood samples (0.3 mL) were collected at the time points of 0.083, 0.25, 0.5, 1.0, 2.0, 4.0, 6.0, 8.0 and 24 h after drug administration; plasma samples were collected by centrifugation of the vein blood samples at 3000 rpm or 4000 rpm for 10 minutes, and stored at −20° C. or −70° C. For gavage administration, the animals were administered with a dose of 2.5 mg/kg or 5 mg/kg, and vein blood samples (0.3 mL) were collected at the time points of 0.25, 0.5, 1.0, 2.0, 4.0, 6.0, 8.0 and 24 h after drug administration; plasma samples were collected by centrifugation at 3000 rpm or 4000 rpm for 10 minutes, and stored at −20° C. or −70° C. The positive control is suvorexant.
The above plasma samples were analyzed by the LC-MS/MS system.

[3] = Stability in human liver microsome; type: in vitro ADME; details: human, microsomes, pH 4
Procedure: A mixture of the compound of the invention and human liver microsome in 0.1 M potassium phosphate buffer (containing 1.0 mM EDTA, pH=4) was incubated at 37° C., the sample concentrations at different incubation times were measured, and then the half life of the compound was calculated by plotting “the relative amount of the compound” against “incubation time” by using software GraphPad Prism 5.01, and intrinsic clearance was calculated. The experiment system shown as table 5:
The sample was analyzed by LC/MS/MS (ESI […] source and waters xbridge C18 EB-A-1420 chromatographic column were adopted), the mobile phases were an aqueous solution with 2 mM ammonium formate and 0.1% formic acid (mobile phase A) and an methanol solution with 2 mM ammonium formate and 0.1% formic acid (mobile phase B), the flow rate was 0.4 mL/min; the column temperature was 40° C. The ratio of the sample peak area to the internal standard peak area was obtained through LC/MS/MS analysis, the content of the compound at 0 time point was as 100%, the relative content of the compound at each time point was calculated. The half life of the compound was calculated by plotting “the relative amount of the compound” against “incubation time”, and intrinsic clearance was calculated.
The positive control is suvorexant.

`Cc1ccc(-n2nccn2)c(C(=O)N2CC3CN(c4nc5cc(Cl)ccc5o4)CC3C2)c1` (stereo not shown) [Example 1, (5-(5-chlorobenzo[d]oxazol-2-yl)hexahydropyrrolo[3,4-c]pyrrol-2(1H)-yl)(5-methyl-2-(2H-1,2,3-triazol-2-yl)phenyl)methanone] showed an IC50 [1] of 0.308 µM, an AUC(0-inf) ([2]; iv, 1 mg/kg) of 2.71 µg·h/mL and an AUC(0-t) ([2]; iv, 1 mg/kg) of 2.15 µg·h/mL. It also gave a Cmax ([2]; iv, 1 mg/kg) of 0.821 µg/mL, an MRT inf ([2]; iv, 1 mg/kg) of 4.97 h and a Vd ([2]; iv, 1 mg/kg) of 1.83 L/kg. It also gave a clearance ([2]; iv, 1 mg/kg) of 0.368 L/h/kg, a half-life ([2]; iv, 1 mg/kg) of 3.73 h and an AUC(0-inf) ([2]; po, 5 mg/kg) of 16.3 µg·h/mL. It also gave an AUC(0-t) ([2]; po, 5 mg/kg) of 15.9 µg·h/mL, a Cmax ([2]; po, 5 mg/kg) of 1.41 µg/mL and an F ([2]; po, 5 mg/kg) of 147.6%. The MRT inf ([2]; po, 5 mg/kg) was 6.84 h, the half-life ([2]; po, 5 mg/kg) was 4.41 h and the CLint scaled at 1 μM [3] was 2.11 L/h/kg. For the same compound, the half-life at 1 μM [3] was 0.825 h.
